This assay has as its system CEM cells HIV-1 protection, formazan growth assay. Nature of the assay: NCI AIDS Antiviral Assay. As to conditions: for pIC50: measured here: growth of uninfected CEM cells. The method, boiled down:
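Five concentrations of each compound were applied to infected and uninfected human CEM cells. Protection from HIV-1 was judged from growth measured with a soluble formazan assay.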

We go through 70 molecules from PubChem BioAssay AID179 (DTP/NCI, 2004).

pEC50, pIC50: −log10 of the molar value. “And” between values parts separate entries of the source, which are not always exact repeats. Identical values can stand only once. The source made the active and inactive calls.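 The calls were made as follows: active = compounds giving half or more protection of infected cells from virus-caused growth loss, again on retest; inactive = the rest.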 Bounds are passed on as bounds.

By pEC50 is commonly meant the negative decadic logarithm of the EC50, by convention in mol/L. One may read the pIC50 as −log10 of the IC50, conventionally taken in molar units. Read a high pIC50 as a low IC50. Regarding `O=C(c1ccccc1)c1ccc2c(c1)N=C(c1ccc(Cl)c(Cl)c1)CC(c1ccc3ccccc3c1)N2` (configuration not stated), the pEC50 is below 4.86 and the negative logarithm of the IC50 (pIC50) is below 4.86.

`O=c1c(C=Nc2ccccc2Cl)c(O)n(-c2ccccc2)c(=O)n1-c1ccccc1`: the outcome was inactive.

As to `CCCCNS(=O)(=O)c1ccc(-c2c3nc(c(-c4ccc(S(=O)(=O)NCCCC)cc4)c4ccc([nH]4)c(-c4ccc(S(=O)(=O)NCCCC)cc4)c4nc(c(-c5ccc(S(=O)(=O)NCCCC)cc5)c5ccc2[nH]5)C=C4)C=C3)cc1`, the pEC50 is below 3.70 and the negative-log IC50 (pIC50) was below 3.70.

`O=C1c2ccccc2C(=O)N1[C@@H](Cc1ccccc1)C(=O)n1cccc1CO`: the pEC50 was below 3.70 and the negative-log IC50 (pIC50) is 3.76.

As to `CCOC1CC2OC(=O)C1C=C2C(=O)OC` (configuration not stated), the result was inactive.

Take `COC(=O)CP1(=O)OC2C(C3CCC2(C)C3(C)C)N1c1cc(C(F)(F)F)cc(C(F)(F)F)c1` (configuration not stated): the pEC50 was below 3.70.

As for `Cc1cn([C@H]2C[C@@H](N(O)C(=O)Nc3ccccc3)[C@@H](CO)O2)c(=O)[nH]c1=O`, the pEC50 was below 3.70 and the pIC50 is below 3.70.

As for `Cc1ccc2c(c1C)C(=O)/C(=C/c1cccc(C)c1C(=O)O)C2`, the result was inactive.

On to `COc1cc2c(c3oc(=O)c4c(c13)CCC4=O)[C@@H]1C=CO[C@@H]1O2`, for which the pEC50 was below 4.00 and the pIC50 was 4.16.

For `CCOC(=O)C1(C(=O)OCC)OC(C)=NC1(C(=O)OC)C(=O)OC`, the pEC50 is below 3.70 and the negative-log IC50 (pIC50) was below 3.70.

For `NN1C(=O)c2cccc3cccc(c23)C1=O`, the pEC50 was below 4.00 and the pIC50 was 4.31.

Turning to `COc1ccc(/C=C2\CCC(C)C3=C2NC(=S)NC3c2ccc(OC)c(OC)c2)cc1OC` (configuration not stated), the pEC50 is below 3.70 and the pIC50 is 4.95.

With `S=c1nc2[nH]c3ccc(Br)cc3c2n[nH]1`, the pEC50 is below 3.70 and the pIC50 was 4.56.

As for `CC(=O)c1ccc(Cc2ccc(C(C)=O)s2)s1`, the pEC50 was below 3.70 and the negative logarithm of the IC50 (pIC50) was below 3.70.

Regarding `C#CCOC(=O)c1ccccc1OC(C)=O`, the pEC50 was below 3.70 and the negative-log IC50 (pIC50) was below 3.70.

`CCCCCCCCCCCCCCCCOC(=O)C(C(=O)OCCCCCCCCCCCCCCCC)[N+](C)(C)CCOC(C)=O`: the result was inactive.

For `CC(=O)Nc1ccc(C(=O)CCC(NC(C)=O)(C(=O)O)C(=O)O)cc1`, the pEC50 was below 3.70 and the pIC50 was below 3.70.

Consider `O=S(Cc1ccccc1)OOCCCCOS(=O)OCc1ccccc1` (configuration not stated), for which the pEC50 is below 3.70 and the pIC50 was 5.38.

On to `CN(C)C=Nc1nncc2n[nH]nc12`, for which the pEC50 was below 3.70 and the pIC50 was below 3.70.

Regarding `CC(CC(=O)O)CC(=O)OC[C@]12CC[C@@H](C(C)C)[C@@H]1[C@H]1CC[C@@H]3[C@@]4(C)CC[C@H](OC(=O)CC(C)CC(=O)O)C(C)(C)[C@@H]4CC[C@@]3(C)[C@]1(C)CC2` (some centres not stated), the pEC50 was below 3.70 and the negative-log IC50 (pIC50) was 4.78.

On to `CCCCCC(C)[P+](c1ccccc1)(c1ccccc1)c1ccccc1` (configuration not stated), for which the pEC50 is below 3.70 and the pIC50 is 6.02.

In the case of `O=C(c1nc2ccc([N+](=O)[O-])cc2[nH]c1=O)C(O)c1ccc2c(c1)OCO2` (configuration not stated), the pEC50 is below 3.17 and the negative logarithm of the IC50 (pIC50) is 3.61.

As to `COc1ccc(-c2nc(SC)n(C3OC(COC(C)=O)C(OC(C)=O)C(OC(C)=O)C3OC(C)=O)c(=O)c2C#N)cc1` (configuration not stated), the pEC50 is below 3.70; the pIC50 is 4.38 and 4.33.

As for `COc1cccc2c1OC1c3ccccc3OCC1C2` (configuration not stated), the pEC50 was below 3.70 and the pIC50 is 4.01.

Turning to `COC(=O)c1cc(C(=CCCCC(=O)O)c2cc(Cl)c(OC)c(C(=O)OC)c2)cc(Cl)c1OC`, the pEC50 was below 3.70 and the pIC50 was below 3.70.

With `OC1CCOC1(O)c1ccccn1` (configuration not stated), the pEC50 is below 3.70 and the pIC50 is below 3.70.

Consider `CC(C)N=c1cc2n(-c3ccc(Cl)cc3)c3ccccc3nc-2cc1Nc1ccc(Cl)cc1`, for which the pEC50 was below 4.00 and the negative-log IC50 (pIC50) is 5.04.

With `Nc1ccn(C2CC(O)C(COP(=O)(O)OC3C(COP(=O)(O)O)OCC3n3cnc4c(N)ncnc43)O2)c(=O)n1` (configuration not stated), the pEC50 is below 3.70 and the pIC50 was below 3.70.

Take `CNC(=S)NC(=S)N(C)C`: the outcome was inactive.

For `CN(C)CCN1C(=O)N(CCN(C)C)c2c3cc(O)ccc3nc3c([N+](=O)[O-])ccc1c23`, the pEC50 was below 3.70 and the negative-log IC50 (pIC50) is 5.63.

Consider `NNC(=O)C1C(O)CCC2CN3CCc4c([nH]c5ccccc45)C3CC21` (configuration not stated), for which the outcome was inactive.

As to `CCC=C(c1cc(Cl)c(OC)c(C(=O)OC)c1)c1cc(Cl)c(OC)c(C(=O)OC)c1`, the pEC50 is below 5.08 and the pIC50 is below 5.08.

Turning to `COc1ccc(-c2ccccc2)c2[nH]c3c(c12)CCNC3=O`, the result was inactive.

On to `COc1ccc(-n2c(=O)n(C)c(=O)n2-c2c(C)c(C)c(C)c(C)c2C)cc1`, for which the pEC50 is below 4.00 and the negative logarithm of the IC50 (pIC50) was 4.73.

For `O=C1C2=C(SCCS2)C(=O)c2ccccc21`, the pEC50 was below 4.37 and the pIC50 is 6.17.

As to `O=C1CCC2(c3ccccc3)Nc3cc([N+](=O)[O-])ccc3N12` (configuration not stated), the pEC50 was below 4.61 and the negative-log IC50 (pIC50) is below 4.61.

For the molecule `CC(=O)O[C@H]1CC[C@@]2(C)C(CC[C@]3(C)C2CC[C@]2(C)Oc4c(C)cc(O)cc4C[C@@H]23)C1(C)C` (some centres not stated), the outcome was inactive.

As to `COC(=O)C1=C(C)C(=O)[C@]23C(CCCC[C@H]12)C(=O)[C@H](C(=O)OC)C3C` (some centres not stated), the pEC50 is below 3.70 and the pIC50 is below 3.70.

Regarding `O=c1[nH]c(=O)n(C2CC(O)C(CO)O2)c2nc3cc4ccccc4cc3nc12` (configuration not stated), the pEC50 was below 3.70 and the pIC50 is below 3.70.

`O=[As](O)(O)c1cccc(F)c1` showed a pEC50 below 3.70 and a negative-log IC50 (pIC50) of 3.97.

On to `Cc1cccc(N=Nc2c(C)nn(C(=O)CC(=O)Nc3ccccc3)c2C)c1`, for which the pEC50 was below 3.70 and the pIC50 is below 3.70.

Turning to `CC1=C(C(=O)NCC(C)O)CC(C(=O)NCC(C)O)=C(C)N1` (configuration not stated), the pEC50 was below 3.70 and the negative-log IC50 (pIC50) was below 3.70.

On to `COC(=O)C(=O)C(C(=O)C(=O)Nc1cc(Cl)c(Cl)cc1Cl)c1nc2ccc([N+](=O)[O-])cc2[nH]c1=O` (configuration not stated), for which the pEC50 was below 3.34 and the negative-log IC50 (pIC50) was 4.02.

As to `Cc1cc(N(CCC#N)CCC#N)ccc1CC1N=C(c2ccccc2)OC1=O` (configuration not stated), the pEC50 is below 4.03 and the pIC50 is below 4.03.

As for `O=C1CCCC2=C1CC1=C(CCCC1=O)N2c1cccc2ccccc12`, the pEC50 was 4.31 and the pIC50 was 3.76.

In the case of `CC1NC(C)SC(C)S1` (configuration not stated), the pEC50 is below 3.70 and the pIC50 is below 3.70.

Take `COC(=O)c1nn2c(=O)[nH]c3ccccc3c2c1C(=O)OC`: the pEC50 was below 3.25 and the pIC50 was 3.48.

Regarding `O=C(c1ccccc1)c1ccc(COc2ccc(C(c3c(O)c4ccccc4oc3=O)c3c(O)c4ccccc4oc3=O)cc2)cc1`, the pEC50 is below 3.70 and the negative logarithm of the IC50 (pIC50) was 4.45.

Take `COC(=O)C1CCC(=S)N1C(C)=O` (configuration not stated): the pEC50 is below 3.70 and the pIC50 was below 3.70.

As for `O=C(Nc1cccc(C(F)(F)F)c1)C(=O)C(C(=O)c1ccc(Cl)c(Cl)c1)C1OC(=O)c2ccccc21` (configuration not stated), the pEC50 was below 3.80 and the pIC50 was 4.86.

In the case of `CCOc1ccc(Nc2nc(C)c(C(=O)CC(=O)C(=O)Nc3ccc(Cl)c(C(F)(F)F)c3)s2)cc1`, the pEC50 was below 3.70 and the pIC50 was below 3.70.

As to `CCO/C=C1\N=C(c2ccccc2Br)OC1=O`, the pEC50 is below 3.50 and the pIC50 was below 3.50.

`Cc1c(C#N)c2ccccc2c2nc3ccccc3n12`: the pEC50 was below 3.70 and the pIC50 is 3.89.

Turning to `c1ccc(/C2=N\OCCCOc3ccccc32)cc1`, the pEC50 is below 3.70 and the pIC50 was below 3.70.

As to `O=c1[nH]c2ccc(C(F)(F)F)cc2nc1Cc1ccccc1`, the pEC50 is below 3.70 and the pIC50 is 4.13.

Take `OC1CCC(C#CC#CC2CCC(O)CC2)CC1` (configuration not stated): the pEC50 was below 4.00 and the pIC50 is below 4.00.

For `COc1c(-c2cc(C)c(Cl)c(=O)[nH]2)c(O)c(OC)c2occc12`, the pEC50 was below 3.70 and the pIC50 was 3.96.

For the molecule `CCCCCCCCCCCC(=O)C1=C(O)C(O)CCC1=O` (configuration not stated), the outcome was inactive.

As for `O=C(NC(=O)c1ccccc1[N+](=O)[O-])Nc1ccc(Oc2ncc(Cl)cn2)c(C(F)(F)F)c1`, the outcome was inactive.

Take `COc1cc(N=Nc2cc(NC(C)=O)c(N=Nc3ccc(S(=O)(=O)O)cc3)cc2S(=O)(=O)O)c(C)cc1N=Nc1cc(OC)c(NC(=O)c2ccc(N)cc2)cc1C`: the negative-log EC50 (pEC50) was 5.34 and the negative logarithm of the IC50 (pIC50) was 3.72.

Regarding `O=C(/C=C/c1ccc([N+](=O)[O-])cc1)c1ccccc1`, the pEC50 was below 5.39 and the pIC50 is below 5.39.

On to `CSc1c(C(C)=O)c(O)n(-c2ccc(Cl)cc2)c(=O)c1C#N`, for which the pEC50 is 4.45 and the pIC50 was 4.44.

Consider `CCOC(=O)CCCN(c1sc(C)c(-c2ccccc2)c1C(=O)OCC)S(=O)(=O)c1ccc(C)cc1`, for which the pEC50 was below 3.70 and the pIC50 is 5.40.

For the molecule `Clc1cc2nn(C3CCCCO3)nc2cc1Cl` (configuration not stated), the pEC50 was below 3.70 and the pIC50 is below 3.70.

For the molecule `C1=C(N2CCOCC2)N(c2ccccc2)c2ccccc2N=C1N1CCCC1`, the outcome was inactive.

With `CN(C)CCNc1ccc(NCC[N+](C)(C)Cc2ccc([N+](=O)[O-])cc2)c2c1C(=O)c1c(O)ccc(O)c1C2=O`, the pEC50 is below 4.70 and the negative-log IC50 (pIC50) is 6.05.

With `CN(C)CCN(C)C(=O)C1CCCN1C(=O)OCc1ccccc1` (configuration not stated), the pEC50 is below 3.12 and the pIC50 is 4.33.

For `COc1ccc(C(=O)Nc2cc(Cc3cc(NC(=O)c4ccc(OC)c(C(=O)O)c4)c(OC)c(C(=O)O)c3)cc(C(=O)O)c2OC)cc1C(=O)O`, the pEC50 is below 4.30 and the negative logarithm of the IC50 (pIC50) is below 4.30.

With `O=S(=O)(c1ccccc1)N1CCCC(c2ccccc2)CC1` (configuration not stated), the outcome was inactive.

For the molecule `CCOC(=O)C(=Cc1ccccc1F)C(=O)OCC`, the pEC50 is below 3.87 and the pIC50 was 4.59.
